In patent US9499550B2 (BRISTOL-MYERS SQUIBB COMPANY, priority 2012, dated 2016):
Like-named read-outs stand apart in the source and are kept apart here.

Assays:
[1] = tested on: HCV genotype 1b (Con1) replicon in HUH-7 cells; assay: HCV replicon luciferase reporter assay, genotype 1b; assay type: cell-based; settings: Hepatitis C virus, Huh-7, 72 h, HCV genotype 1b replicon luciferase, 3 days incubation
Method in brief: (§1)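 Replicon inhibition for both genotypes was measured as Renilla luciferase signal (EnduRen, 7.5 μM final, 2 h) after 3-day, 37° C exposure of replicon-bearing HUH-7 cells in 4% FCS DMEM, 0.5% DMSO. The 1b construct carries S1179I; the 1a H77 construct carries P1496L and S2204I. Twenty-point, 3-fold dilutions were fitted four-parametrically for EC50, and CC50 was taken from multiplexed Cell Titer-Blue.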

[2] = tested on: HCV genotype 1a (H77 strain) replicon in HUH-7 cells; assay: HCV replicon luciferase reporter assay, genotype 1a; assay type: cell-based; settings: Hepatitis C virus, Huh-7, 72 h, HCV genotype 1a replicon luciferase, 3 days incubation
Method in brief: as §1

[3] = GETYPE1B, read-out: LE_1b (EC50, range)
[4] = GETYPE1A, read-out: LE_1a (EC50, range)

Row | Structure (SMILES) | EC50 [1, 3] | EC50 [2, 4] | EC50 ([1]; read-out: LE_1b (EC50, range)) | EC50 ([2]; read-out: LE_1a (EC50, range)) | further results
1 | CC[C@@H]1C[C@H](C)CC/C=C\[C@@H]2C[C@@]2(C(=O)NS(=O)(=O)C2(C)CC2)NC(=O)[C@@H]2C[C@@H](Oc3nc4cc(OC)c(F)cc4nc3C(F)(F)F)CN2C(=O)[C@H]1NC(=O)OC(C)(C)C(F)(F)F [Compound 4268] | 1.01 to 5 nM | 1.01 to 5 nM | – | – | –
2 | CC[C@@H]1C[C@H](C)CC/C=C\[C@@H]2C[C@@]2(C(=O)NS(=O)(=O)C2(C)CC2)NC(=O)[C@@H]2C[C@@H](Oc3ncc(N(CC)CC)c4cc(OC)ccc34)CN2C(=O)[C@H]1NC(=O)OC(C)(C)C(F)(F)F [Compound 4269] | 1.01 to 5 nM | 1.01 to 5 nM | – | – | –
3 | CC[C@@H]1C[C@H](C)CC/C=C\[C@@H]2C[C@@]2(C(=O)NS(=O)(=O)C2CC2)NC(=O)[C@@H]2C[C@@H](Oc3nc4cc(OC)ccc4nc3Cl)CN2C(=O)[C@H]1NC(=O)OC(C)(C)C [Compound 4270, tert-butyl ((2R,6S,7R,9R,13aS,14aR,16aS,Z)-2-((3-chloro-7-methoxyquinoxalin-2-yl)oxy)-14a-((cyclopropylsulfonyl)carbamoyl)-7-ethyl-9-methyl-5,16-dioxo-1,2,3,5,6,7,8,9,10,11,13a,14,14a,15,16,16a-hexadecahydrocyclopropa[e]pyrrolo[1,2-a][1,4]diazacyclopentadecin-6-yl)carbamate] | – | – | 0.1 to 0.5 nM | 1.01 to 5 nM | –
4 | CC[C@@H]1C[C@H](C)CC/C=C\[C@@H]2C[C@@]2(C(=O)NS(=O)(=O)C2CC2)NC(=O)[C@@H]2C[C@@H](Oc3nc4cc(OC)ccc4nc3Cl)CN2C(=O)[C@H]1NC(=O)OC(C)(C)C(F)(F)F [Compound 4271] | 0.1 to 0.5 nM | 1.01 to 5 nM | – | – | –
5 | CC[C@@H]1C[C@H](C)CC/C=C\[C@@H]2C[C@@]2(C(=O)NS(=O)(=O)C2CC2)NC(=O)[C@@H]2C[C@@H](Oc3nc4cc(OC)ccc4nc3C(C)C)CN2C(=O)[C@H]1NC(=O)OC(C)(C)C [Compound 4272, tert-butyl ((2R,6S,7R,9R,13aS,14aR,16aS,Z)-14a-((cyclopropylsulfonyl)carbamoyl)-7-ethyl-2-((3-isopropyl-7-methoxyquinoxalin-2-yl)oxy)-9-methyl-5,16-dioxo-1,2,3,5,6,7,8,9,10,11,13a,14,14a,15,16,16a-hexadecahydrocyclopropa[e]pyrrolo[1,2-a][1,4]diazacyclopentadecin-6-yl)carbamate] | – | – | 1.01 to 5 nM | 5.01 to 35 nM | –
6 | CC[C@@H]1C[C@H](C)CC/C=C\[C@@H]2C[C@@]2(C(=O)NS(=O)(=O)C2CC2)NC(=O)[C@@H]2C[C@@H](Oc3nc4cc(OC)ccc4nc3C(C)C)CN2C(=O)[C@H]1NC(=O)OC(C)(C)C(F)(F)F [Compound 4273] | 1.01 to 5 nM | 5.01 to 35 nM | – | – | –
7 | CC[C@@H]1C[C@H](C)CC/C=C\[C@@H]2C[C@@]2(C(=O)NS(=O)(=O)C2(C)CC2)NC(=O)[C@@H]2C[C@@H](Oc3ncc(C(=O)O)c4cc(OC)ccc34)CN2C(=O)[C@H]1NC(=O)OC(C)(C)C(F)(F)F [Compound 4276, 1-(((2R,6S,7R,9R,13aS,14aR,16aS,Z)-7-ethyl-9-methyl-14a-(((1-methylcyclopropyl)sulfonyl)carbamoyl)-5,16-dioxo-6-((((1,1,1-trifluoro-2-methylpropan-2-yl)oxy)carbonyl)amino)-1,2,3,5,6,7,8,9,10,11,13a,14,14a,15,16,16a-hexadecahydrocyclopropa[e]pyrrolo[1,2-a][1,4]diazacyclopentadecin-2-yl)oxy)-6-methoxyisoquinoline-4-carboxylic acid] | – | – | 35 to 620 nM | 35 to 620 nM | –
8 | CC[C@@H]1C[C@H](C)CC/C=C\[C@@H]2C[C@@]2(C(=O)NS(=O)(=O)C2(C)CC2)NC(=O)[C@@H]2C[C@@H](Oc3ncc(C(=O)O)c4cc(OC)ccc34)CN2C(=O)[C@H]1NC(=O)OC(C)(C)C [Compound 4277, 1-(((2R,6S,7R,9R,13aS,14aR,16aS,Z)-6-((tert-butoxycarbonyl)amino)-7-ethyl-9-methyl-14a-(((1-methylcyclopropyl)sulfonyl)carbamoyl)-5,16-dioxo-1,2,3,5,6,7,8,9,10,11,13a,14,14a,15,16,16a-hexadecahydrocyclopropa[e]pyrrolo[1,2-a][1,4]diazacyclopentadecin-2-yl)oxy)-6-methoxyisoquinoline-4-carboxylic acid] | – | – | 35 to 620 nM | 35 to 620 nM | EC50 ([1]; read-out: LE_1b (EC50)): 218 nM; EC50 ([2]; read-out: LE_1a (EC50)): ≥ 1000 nM
9 | CC[C@@H]1C[C@H](C)CC/C=C\[C@@H]2C[C@@]2(C(=O)NS(=O)(=O)C2CC2)NC(=O)[C@@H]2C[C@@H](Oc3ncc(C(=O)O)c4cc(OC)ccc34)CN2C(=O)[C@H]1NC(=O)OC(C)(C)C [Compound 4278, 1-(((2R,6S,7R,9R,13aS,14aR,16aS,Z)-6-((tert-butoxycarbonyl)amino)-14a-((cyclopropylsulfonyl)carbamoyl)-7-ethyl-9-methyl-5,16-dioxo-1,2,3,5,6,7,8,9,10,11,13a,14,14a,15,16,16a-hexadecahydrocyclopropa[e]pyrrolo[1,2-a][1,4]diazacyclopentadecin-2-yl)oxy)-6-methoxyisoquinoline-4-carboxylic acid] | – | – | 35 to 620 nM | 35 to 620 nM | –
10 | CC[C@@H]1C[C@H](C)CC/C=C\[C@@H]2C[C@@]2(C(=O)NS(=O)(=O)C2CC2)NC(=O)[C@@H]2C[C@@H](Oc3ncc(C(=O)O)c4cc(OC)ccc34)CN2C(=O)[C@H]1NC(=O)OC(C)(C)C(F)(F)F [Compound 4279, 1-(((2R,6S,7R,9R,13aS,14aR,16aS,Z)-14a-((cyclopropylsulfonyl)carbamoyl)-7-ethyl-9-methyl-5,16-dioxo-6-((((1,1,1-trifluoro-2-methylpropan-2-yl)oxy)carbonyl)amino)-1,2,3,5,6,7,8,9,10,11,13a,14,14a,15,16,16a-hexadecahydrocyclopropa[e]pyrrolo[1,2-1,2-a][1,4]diazacyclopentadecin-2-yl)oxy)-6-methoxyisoquinoline-4-carboxylic acid] | – | – | 35 to 620 nM | 35 to 620 nM | –
11 | CC[C@@H]1C[C@H](C)CC/C=C\[C@@H]2C[C@@]2(C(=O)NS(=O)(=O)C2(C)CC2)NC(=O)[C@@H]2C[C@@H](Oc3ncc(OC)c4ccc(F)cc34)CN2C(=O)[C@H]1NC(=O)N1CCS(=O)(=O)CC1 [Compound 4283, N-((2R,6S,7R,9R,13aS,14aR,16aS,Z)-7-ethyl-2-((7-fluoro-4-methoxyisoquinolin-1-yl)oxy)-9-methyl-14a-(((1-methylcyclopropyl)sulfonyl)carbamoyl)-5,16-dioxo-1,2,3,5,6,7,8,9,10,11,13a,14,14a,15,16,16a-hexadecahydrocyclopropa[e]pyrrolo[1,2-a][1,4]diazacyclopentadecin-6-yl)thiomorpholine-4-carboxamide 1,1-dioxide] | – | – | 1.01 to 5 nM | 5.01 to 35 nM | –
12 | CC[C@@H]1C[C@H](C)CC/C=C\[C@@H]2C[C@@]2(C(=O)NS(=O)(=O)C2(C)CC2)NC(=O)[C@@H]2C[C@@H](Oc3ncc(OC)c4ccc(F)cc34)CN2C(=O)[C@H]1NC(=O)N1CCOCC1 [Compound 4284, N-((2R,6S,7R,9R,13aS,14aR,16aS,Z)-7-ethyl-2-((7-fluoro-4-methoxyisoquinolin-1-yl)oxy)-9-methyl-14a-(((1-methylcyclopropyl)sulfonyl)carbamoyl)-5,16-dioxo-1,2,3,5,6,7,8,9,10,11,13a,14,14a,15,16,16a-hexadecahydrocyclopropa[e]pyrrolo[1,2-a][1,4]diazacyclopentadecin-6-yl)morpholine-4-carboxamide] | – | – | 0.1 to 0.5 nM | 0.51 to 1 nM | EC50 ([1]; read-out: LE_1b (EC50)): 0.42 nM; EC50 ([2]; read-out: LE_1a (EC50)): 0.73 nM
13 | COc1cc2nc(O[C@@H]3C[C@H]4C(=O)N[C@]5(C(=O)NS(=O)(=O)C6(C)CC6)C[C@H]5/C=C\CC[C@H](C)C[C@@H](C)[C@H](NC(=O)OC(C)(C)C(F)(F)F)C(=O)N4C3)c(C(F)(F)F)nc2cc1F [Compound 4289] | 1.01 to 5 nM | 5.01 to 35 nM | – | – | –
14 | COc1cc2nc(O[C@@H]3C[C@H]4C(=O)N[C@]5(C(=O)NS(=O)(=O)C6(C)CC6)C[C@H]5/C=C\CC[C@@H](C)C[C@@H](C)[C@H](NC(=O)OC(C)(C)C(F)(F)F)C(=O)N4C3)c(C(F)(F)F)nc2cc1F [Compound 4290] | 0.51 to 1 nM | 1.01 to 5 nM | – | – | –
15 | CCOc1ccc2nc(Cl)c(O[C@@H]3C[C@H]4C(=O)N[C@]5(C(=O)NS(=O)(=O)C6(CF)CC6)C[C@H]5/C=C\CC[C@@H](C)C[C@@H](C)[C@H](NC(=O)OC(C)(C)C(F)(F)F)C(=O)N4C3)c(Cl)c2c1 [Compound 4292] | 5.01 to 35 nM | 5.01 to 35 nM | – | – | –
16 | CCOc1ccc2ncc(O[C@@H]3C[C@H]4C(=O)N[C@]5(C(=O)NS(=O)(=O)C6(CF)CC6)C[C@H]5/C=C\CC[C@@H](C)C[C@@H](C)[C@H](NC(=O)OC(C)(C)C(F)(F)F)C(=O)N4C3)cc2c1 [Compound 4296] | 5.01 to 35 nM | 5.01 to 35 nM | – | – | EC50 ([1]; GETYPE1B, read-out: LE_1b (EC50)): 5.46 nM; EC50 ([2]; GETYPE1A, read-out: LE_1a (EC50)): 11.9 nM
17 | CC[C@@H]1C[C@H](C)CC/C=C\[C@@H]2C[C@@]2(C(=O)NS(=O)(=O)C2(C)CC2)NC(=O)[C@@H]2C[C@@H](Oc3cc(Cl)c4ccc(OC)cc4n3)CN2C(=O)[C@H]1NC(=O)OC(C)(C)C(F)(F)F [Compound 4298] | 1.01 to 5 nM | 1.01 to 5 nM | – | – | –
